Test results: patent EP0840781B1, “METHODS AND DEVICES FOR THE REMOVAL OF PSORALENS FROM BLOOD PRODUCTS” (Cerus Corporation, priority 1995, dated 1996)
Like-named read-outs stand apart in the source and are kept apart here.

Tested on: Salmonella typhimurium tester strains TA97a, TA98, TA100, TA102, TA1537 and TA1538
Settings: for revertant colonies, TA98 -S9 / revertant colonies, TA98 +S9: Table 19 (A) experiment; for revertant colonies, TA98 -S9: background 17; for revertant colonies, TA98 +S9: background 28; for revertant colonies, TA1538 +S9 (Table 18 (A)): background 123; for revertant colonies, TA1538 -S9 (Table 18 (A)): background 126; for revertant colonies, TA1537 -S9 (Table 18 (A)): background 20; for revertant colonies, TA1537 +S9 (Table 18 (A)): background 25
Source text: The second property that is important in testing a compound for use in methods described herein is mutagenicity. The most widely used mutagen/carcinogen screening assay is the Ames test. This assay is described by D.M. Maron and B.N. Ames in Mutation Research 113:173 ( 1983) and a specific screen is described in detail in Example 17, below. The Ames test utilizes several unique strains of Salmonella typhimurium that are histidine- dependent for growth and that lack the usual DNA repair enzymes. The frequency of normal mutations that render the bacteria independent of histidine (i.e., the frequency of spontaneous revertants) is low. The test allows one to evaluate the impact of a compound on this revenant frequency.
Because some substances are not mutagenic by themselves, but are converted to a mutagen by metabolic action, the compound to be tested is mixed with the bacteria on agar plates along with the liver extract. The liver extract serves to mimic metabolic action in an animal.
The mixtures are allowed to incubate. Growth of bacteria (if any) is checked by counting colonies.
In this example the compounds described herein are tested for their dark mutagenicity using an Ames assay. The procedures used for the Salmonella mutagenicity test as described in detail by Maron and Ames were followed exactly. Maron, D.M. and B.N. Ames, Mutation Research 113: 173 ( 1983). A brief description for each procedure is given here. The tester strains TA97a, TA98, TA 100, TA102, TA1537 and TA1538 were obtained from Dr. Ames. TA97a, TA98, TA1537 and TA1538 are frameshift tester strains. TA100 and TA102 are base-substitution tester strains. Upon receipt each strain was cultured under a variety of conditions to confirm the genotypes specific to the strains.
The first tests done with the strains were to determine the range of spontaneous reversion for each of the strains. With each mutagenicity experiment the spontaneous reversion of the tester strains to histidine independence was measured and expressed as the number of spontaneous revertants per plate. This served as the background controls.
For all experiments, the pre-incubation procedure was used. In this procedure one vial of each tester strain was thawed and 20 µL of this culture was added to 6 mL of Oxoid Nutrient Broth #2. This solution was allowed to shake for 10 hours at 37°C. In the pre-incubation procedure, 0.1 mL of this overnight culture was added to each of the required number of sterile test tubes. To half of the tubes 0.5 mL of a 10% S-9 solution containing Aroclor 1254 induced rat liver extract (Molecular Toxicology Inc., Annapolis, MD), and MgCl2, KCl, glucose-6-phosphate, NADP, and sodium phosphate buffer (Sigma, St. Louis, Missouri) were added. To the other half of the tubes 0.5 mL of 0.2M sodium phospate buffer, pH 7.4, was used in place of the S-9 mixture (the - S9 samples). Finally 0.1 mL of the test solution containing either 0, 0.1, 0.5, 1, 5, 10, 50, 100, 250, or 500 µg/mL of the test compound was added. The 0.7 mL mixture was vonexed and then pre-incubated while shaking for 20 minutes at 37°C. After shaking, 2 mL of molten top agar supplemented with histidine and biotin were added to the 0.7 mL mixture and immediately poured onto a minimal glucose agar plate (volume of base agar was 20 mL). The top agar was allowed 30 minutes to solidify and then the plates were inverted and incubated for 44 hours at 37°C. After incubation the number of revertant colonies on each plate were counted.
Maron and Ames (1983) describe the conflicting views with regard to the statistical treatment of data generated from the test.

[1] = two-fold or greater increase in revertants above background and dose dependent response

Cc1cc(=O)oc2c(C)c3oc(COCCN)c(C)c3cc12 [Compound 18, 5'-(4-amino-2-oxa)butyl-4,4',8-trimethylpsoralen]
revertant colonies, TA98 -S9 (10 µg/plate): 21 | revertant colonies, TA98 +S9 (10 µg/plate): 8 | revertant colonies, TA1537 +S9 (10 µg/plate, Table 19 (B) experiment, background 7): 8 | revertant colonies, TA1537 -S9 (10 µg/plate, Table 19 (B) experiment, background 8): 21 | revertant colonies, TA98 -S9 (50 µg/plate): 303 | revertant colonies, TA98 +S9 (50 µg/plate): 6 | revertant colonies, TA1537 +S9 (50 µg/plate, Table 19 (B) experiment, background 7): 6 | revertant colonies, TA1537 -S9 (50 µg/plate, Table 19 (B) experiment, background 8): 303 | revertant colonies, TA98 -S9 (100 µg/plate): 390 | revertant colonies, TA98 +S9 (100 µg/plate): 26 | revertant colonies, TA1537 +S9 (100 µg/plate, Table 19 (B) experiment, background 7): 26 | revertant colonies, TA1537 -S9 (100 µg/plate, Table 19 (B) experiment, background 8): 390 | revertant colonies, TA98 -S9 (200 µg/plate): 225 | revertant colonies, TA98 +S9 (200 µg/plate): 42 | revertant colonies, TA1537 +S9 (200 µg/plate, Table 19 (B) experiment, background 7): 42 | revertant colonies, TA1537 -S9 (200 µg/plate, Table 19 (B) experiment, background 8): 225 | mutagenic response (Ames, summary) [1]: only a weak response at high concentrations in the presence of S9 in strains TA 9o and TA 1537

Cc1oc2c(C)c3oc(=O)cc(C)c3cc2c1CNCCCCN [Compound 6, 4'-(6-amino-2-aza)hexyl4,5',8-trimethylpsoralen]
revertant colonies, TA1538 +S9 (5 µg/plate): 0 | revertant colonies, TA1538 -S9 (5 µg/plate): -5 | revertant colonies, TA1538 +S9 (Table 18 (A)) (5 µg/plate): 12 | revertant colonies, TA1538 -S9 (Table 18 (A)) (5 µg/plate): -32 | revertant colonies, TA1537 +S9 (10 µg/plate): -1 | revertant colonies, TA1537 -S9 (10 µg/plate): 141 | revertant colonies, TA1538 +S9 (10 µg/plate): 8 | revertant colonies, TA1538 -S9 (10 µg/plate): -2 | revertant colonies, TA1537 -S9 (Table 18 (A)) (10 µg/plate): 12 | revertant colonies, TA1537 +S9 (Table 18 (A)) (10 µg/plate): -5 | revertant colonies, TA1538 +S9 (Table 18 (A)) (10 µg/plate): -5 | revertant colonies, TA1538 -S9 (Table 18 (A)) (10 µg/plate): 3 | revertant colonies, TA1537 +S9 (50 µg/plate): 17 | revertant colonies, TA1537 -S9 (50 µg/plate): 2010 | revertant colonies, TA1537 -S9 (Table 18 (A)) (50 µg/plate): 12 | revertant colonies, TA1537 +S9 (Table 18 (A)) (50 µg/plate): 2 | revertant colonies, TA1538 +S9 (Table 18 (A)) (50 µg/plate): 24 | revertant colonies, TA1538 -S9 (Table 18 (A)) (50 µg/plate): 2 | revertant colonies, TA1537 +S9 (100 µg/plate): 35 | revertant colonies, TA1537 -S9 (100 µg/plate): 795 | revertant colonies, TA1537 -S9 (Table 18 (A)) (100 µg/plate): 22 | revertant colonies, TA1537 +S9 (Table 18 (A)) (100 µg/plate): 20 | revertant colonies, TA1538 +S9 (Table 18 (A)) (100 µg/plate): -2 | revertant colonies, TA1538 -S9 (Table 18 (A)) (100 µg/plate): -18 | revertant colonies, TA1537 +S9 (250 µg/plate): 99 | revertant colonies, TA1537 -S9 (250 µg/plate): 228 | revertant colonies, TA1537 -S9 (Table 18 (A)) (250 µg/plate): 12 | revertant colonies, TA1537 +S9 (Table 18 (A)) (250 µg/plate): 40 | revertant colonies, TA1538 +S9 (Table 18 (A)) (250 µg/plate): -38 | revertant colonies, TA1537 +S9 (500 µg/plate): 369 | revertant colonies, TA1537 -S9 (500 µg/plate): 43 | revertant colonies, TA1537 -S9 (Table 18 (A)) (500 µg/plate): 9 | revertant colonies, TA1537 +S9 (Table 18 (A)) (500 µg/plate): 52 | frameshift mutagenicity (Ames, summary) [1]: a frameshift response in TA98 in the presence of S9 at concentrations of 250µg/plate and above. It also showed a response at 50µg/plate in TA1537 in the presence of S9 | base-substitution mutagenicity (Ames, summary) (two-fold or greater increase in revertants above background and dose dependent response, TA100, TA102): no base substitution mutagenicity
